# Where no end group is shown, it is not given here.
# Tests used:
# [1] = biological target: T1, PD-1 on the surface of Jurkat T cells (Homo sapiens, UniProt Q15116); experiment: Immunofluorescence and flow cytometry analysis of specific binding of FITC-stained peptides to Jurkat T cells; type: cell-based; conditions: flow cytometry; 10 μM or 40 μM FITC peptide
# T1 construct: when Jurkat cells were stimulated by PMA, they highly expressed PD-1; endogenous in cells; host or cells: Jurkat T cells stimulated with PMA and ionomycin
# T1 sequence (Q15116 25-288): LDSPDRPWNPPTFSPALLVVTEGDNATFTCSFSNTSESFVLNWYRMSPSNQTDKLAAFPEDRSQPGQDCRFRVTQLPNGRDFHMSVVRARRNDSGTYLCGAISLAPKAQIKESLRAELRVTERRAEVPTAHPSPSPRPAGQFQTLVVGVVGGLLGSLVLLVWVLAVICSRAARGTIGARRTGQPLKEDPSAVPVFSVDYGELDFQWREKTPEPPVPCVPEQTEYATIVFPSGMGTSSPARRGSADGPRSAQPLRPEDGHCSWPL
# Description: (§1) Experiments were divided into an experimental group and a control group. In the experimental group, Jurkat T cells were stimulated for 24 hours with 50 ng/ml of Phorbol 12-myristate 13-acetate (PMA) and 1 ug/ml of Ionomycin Calcium Salt (Ionomycin) to express PD-1, while in the control group, Jurkat T cells were not stimulated and thus hardly expressed any PD-1. For immunofluorescence analysis, Jurkat T cells (1×10^6) were obtained and blocked with 2% BSA for 1 hour at room temperature to decrease specific binding. After blocking, the cells were collected and incubated with 10 μM of peptides stained with FITC (green fluorescence) for 1 hour at 37° C. PBS was used for washing the cells three times and 4% paraformaldehyde was used for immobilization. […] PBS was used for washing three times again and anti-fade mounting medium was used for preserving fluorescence. Further, fluorescence confocal microscope images were analyzed by using Image J software to evaluate the ability of polypeptides to compete the binding sites of PD-1. […] Subsequently, the cells were incubated with 10 μM or 40 μM of peptides stained with FITC (green fluorescence) for 1 hour at 4° C. PBS was used for washing three times, and finally 500 ul of PBS was used for resuspending the cells, which were then transferred to flow tubes and analyzed by flow cytometry (CytoFLEX, BECK MANCOULTER, America).
# [2] = biological target: T2, PD-1 expressed on the surface of stimulated Jurkat T cells (Homo sapiens, UniProt Q15116); experiment: Blocking capacity: competitive binding to PD-1 on stimulated Jurkat T cells (immunofluorescence, mean fluorescence intensity); type: cell-based; conditions: 1 hour incubation, equal concentration
# T2 construct: when Jurkat cells were stimulated by PMA, they highly expressed PD-1; endogenous in cells; host or cells: Jurkat T cells stimulated with PMA and ionomycin
# T2 sequence (Q15116 25-288): as above
# Description: as §1, with “America). […]” for “America).”
# [3] = biological target: T3, recombinant Human PD-L1 protein binding to PD-1-expressing Jurkat T cells (Homo sapiens, UniProt Q15116); experiment: Neutralization of recombinant Human PD-L1 protein binding to PD-1-expressing Jurkat T cells (flow cytometry); type: cell-based; conditions: peptide 0.4-40 μM mixed with PD-L1 protein, stimulated Jurkat T cells
# T3 construct: when Jurkat cells were stimulated by PMA, they highly expressed PD-1; host or cells: Jurkat T cells stimulated with PMA and ionomycin
# T3 sequence (Q15116 25-288): as above
# Description: The Jurkat T cells were divided into two groups, an experimental group and a control group, wherein in the experimental group, 50 ng/ml of Phorbol 12-myristate 13-acetate (PAM) and 1 ug/ml of Ionomycin Calcium Salt (Ionomycin) were used to stimulate the cells, and in the control group, Jurkat T cells were unstimulated. The cells (5×10^5) were collected in each tube, and washed once with FACS buffer (PBS with 2% BSA). Then recombinant Human PD-L1 protein (PD1-H82F3, Acro Biosystems) was diluted to 4 ug/ml with FACS, and PD-1 binding peptides were diluted with FACS to a series of concentrations of 0.4 μM, 1.33 μM, 4 μM, 13.3 μM, and 40 μM. Subsequently, the two working solutions (PD-L1 protein diluent and peptide diluent) were mixed in an equal volume and 100 ul of mixed solutions at different concentrations were added to the centrifuge tubes together with the cells, incubated for 1 hour at 4° C. FACS buffer was used for washing the cells three times, and 0.12 ug/ml of APC Streptavidin (405207, Biolegend) was added to each tube and the incubation was performed for 1 hour at 4° C., and then the cells were washed three times with FACS buffer again, and 500 μl of PBS was added to resuspend the cells, which were further transferred to flow tubes and analyzed by flow cytometry.
# Further, neutralization capacity of nABP284 and new peptides to recombinant Human PD-L1 protein were studied. […]
# Jurkat T cells = experiment: CCK-8 cytotoxicity assay on Jurkat T cells; type: cell-based, Human; conditions: CCK-8, 1-64 μM, 24 hours
# Description: (§2) Cytotoxicity assay was performed and measured with Cell Counting Kit-8 (CCK-8, Dujindo, Japan). Jurkat cells (each well with 4000 cells), PBMCs (each well with 4000 cells) and Cal27 cells (each well with 2000 cells) were added into a 96-well plate and cultured for 24 hours, respectively. nABP284, nABP386 and nABP486 in a concentration gradient of 1 μM, 2 μM, 3 μM, 4 μM, 8 μM, 16 μM, 32 μM and 64 μM were added into the medium and the cells were cultured for 24 hours in a cell incubator. After that, 10 μl of CCK-8 solution was added to each well and the cells were incubated for 2 hours. VictorX5 Multilabel plate reader (PerkinElmer, Singapore) was used for measuring absorbance of each well at 450 nm. Cell viability (%) was calculated by the following formula:
# (§3) Cell viability (%)=[(Sample A−Background A)/(Control A−Blank A)×100%. • Wherein Sample A denotes the absorbance of the experimental well (including cells, CCK-8 solution, medium and peptide diluent) • Background A denotes the absorbance of the background hole (including CCK-8 solution, medium, and peptide diluent without cells); • Control A denotes the absorbance of the control hole (including cells, CCK-8 solution and medium without peptide diluent); and • Blank A denotes the absorbance of the blank hole (including CCK-8 solution and medium without cells and peptide diluent).
# Cal27 cells = experiment: CCK-8 cytotoxicity assay on Cal27 cells; type: cell-based, Human; conditions: CCK-8, 1-64 μM, 24 hours
# Description: as §2, §3
# [4] = tested on: PD-1/PD-L1 interaction in Jurkat T / Cal27 co-culture; experiment: Co-culture of stimulated Jurkat T cells and stimulated Cal27 cells, IL-2 ELISA; type: cell-based, Human; conditions: 10 μM peptide or 2 ug/ml antibody, 24 hours co-culture, compared with the control group
# Description: 50 ng/ml of Phorbol 12-myristate 13-acetate (PMA) and 1 ug/ml of Ionomycin Calcium Salt (Ionomycin) were used for stimulating Jurkat T cells for 24 hours, and 500 U/ml of IFN-γ was used for stimulating CAL27 cells for 48 hours. The stimulated Jurkat T cells were incubated with 10 μM of nABP284, 10 μM of nABP386, 10 μM of nABP486, and 2 ug/ml of PD-1 functional monoclonal antibody (J116, eBioscience|ThermoFisher Science) for 1 hour in advance at 37° C., respectively, and the stimulated CAL27 cells were added to the 96-well plate at 1×10^4 cells per well. When CAL27 cells were immobilized, a supernate was removed. The Jurkat T cells at a ratio of 4 to 1 and 200 ul of medium were added to each well. After these cells were co-cultured for 24 hours, a supernate was collected and analyzed by ELISA kit (88-7025-86, Thermo Fisher Scientific) to measure the amount of IL-2 in the supernate.
# PD-1 [5] = biological target: T4, PD-1 (Homo sapiens, UniProt Q15116); conditions: in vitro, prior patent; cited from earlier work
# Target sequence in this assay (Q15116 25-288): as above
# tumor = conditions: prior patent; cited from earlier work
# PD-1 [6] = biological target: T4, PD-1; experiment: SPR affinity assay on recombinant Human PD-1 protein (Biocore T100, CM5 chip); type: binding; design: purchased Acro Biosystems PD1-H5221
# Description: The affinity of the peptides was tested with Biocore T100 through surface plasmon resonance (SPR) technique. […] Finally, the affinities (Kd-value) of the peptides were calculated by fitting curves in the sensor diagram in Biacore software.
# The binding affinities (Kd-value) of nABP386, nABP486, and nABP786 to PD-1 were detected by Surface plasma resonance (SPR), respectively.
# Target sequence in this assay (Q15116 25-167 limits assumed): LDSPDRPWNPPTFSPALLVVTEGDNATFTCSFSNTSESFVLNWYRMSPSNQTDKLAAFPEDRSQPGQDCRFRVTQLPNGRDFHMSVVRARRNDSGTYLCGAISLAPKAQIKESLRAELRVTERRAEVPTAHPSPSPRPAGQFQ
sequence,measurement,setting,value
SRLKEIANSPTQFWRMVARNTLGGAKQSLNIEHARL [nABP284],binding rate to PD-1-expressing Jurkat T cells,[1],may increase with its increasing concentration
same,blocking capacity on PD-1 (mean fluorescence intensity),[2],have a blocking capacity on PD-1 expressed on the surface of stimulated Jurkat T cells
same,neutralization capacity to recombinant Human PD-L1 protein,[3],can be inhibited
same,direct cytotoxicity to Jurkat T cells,Jurkat T cells,no directly cytotoxicity
same,direct cytotoxicity to Cal27 cells,Cal27 cells,no directly cytotoxicity
same,secretion level of IL-2 in the co-culture system,[4],significantly increased
same,blocking of PD-L1 ligand binding to PD-1,PD-1 [5],can block the binding of PD-L1 ligand to PD-1
same,secretion of IL-2 and tumor cytotoxicity of T lymphocytes,PD-1 [5],enhance the secretion of interleukin 2 (IL-2) and tumor cytotoxicity of T lymphocytes
same,tumor growth in mice,tumor,inhibit tumor growth in mice
same,"binding affinity to PD-1, in words",PD-1 [6],can specifically bind to PD-1 with moderate affinity
